In PMC12677843, “Multidisciplinary Preclinical Investigations on Ferrocenyl, Ruthenocenyl, and Benzyl Derivatives of Niridazole as New Drug Candidates against Schistosomiasis” (Chemmedchem, 2025):
“Also recorded” adds a separate entry of the source.

How the values were obtained:
adult S. mansoni = test: In vitro drug sensitivity assay on adult S. mansoni (microscopic viability scoring); type: cell-based, Schistosoma mansoni; conditions: for drug effect at 50 µM on adult S. mansoni: 72 h incubation, normalized to DMSO control, active if ≥60%; for EC50: 72 h drug exposure, 37 °C, 5% CO2, read-out: EC50 on adult S. mansoni, 72 h
Procedure: Figure 3 In vitro activity at 50 µM of the 12 compounds on adult S. mansoni. Adult schistosomes were incubated in culture media for 72 h at 37 °C and 5% CO2 with either compound (50 µM) or a DMSO (0.5%) control. The viability of the worms was microscopically evaluated and scored (0—3, in 0.5 steps) every 24 h. Results are from two independent experiments, each performed in duplicate. Drug activities were normalized to the DMSO controls. Data represent mean ± SD in percentage of DMSO control. […]
In vitro evaluation on adult S. mansoni
After a week for acclimatization to the new environment with controlled conditions (temperature: 22 °C ± 2 °C, humidity: 50 % ± 10 %, 12:12 h light/dark photocycle), four-week-old female NMRI mice (Charles River, Sulzfeld, Germany) were subcutaneously infected with approximately 100 cercariae to establish the S. mansoni infection. In the S. mansoni infected mice the worms were allowed to develop for 7 weeks into the adult stage, before they were extracted from the mesenteric veins of the euthanized mice. The adult worms were placed into RPMI 1640 (Gibco, Waltham MA, USA) medium supplemented with 1 % penicillin/streptomycin mixture and 5 % iFCS at 37 °C and 5 % CO 2. The drug sensitivity assay was set up in a 24-well plate with two wells containing each two pairs of S. mansoni worms per compound and concentration.
The final volume per well was 2 mL, containing the culture medium and the corresponding amount of drug dissolved in DMSO. The maximum concentration tested was 50 µM, corresponding to 0.5 % DMSO, to which all the other wells were adapted […]
to, so that all test concentrations contained always the same amount of DMSO.
Additionally, 2 wells with negative controls containing only DMSO and the culture medium were included. After an incubation period of 72 h at 37 °C and 5 % CO 2, the worms were microscopically evaluated. The drug effect was determined 24, 48 and 72 h post-exposure based on the phenotype of the adult worms, using a viability scale ranging from three referring to viable, motile worms with no change in their tegument to zero standing for the death of the worms.
All described in vitro studies with mice involved, were conducted at the Swiss Tropical and Public Health Institute, first in Basel, later in Allschwil, and had the approval by the corresponding veterinary authorities of the Canton Basel-Stadt (permit no. 2070)

[1] = system: S. mansoni newly transformed schistosomula (NTS); test: In vitro evaluation on newly transformed schistosomula (NTS); type: cell-based, Schistosoma mansoni; conditions: for EC50: 72 h incubation, 37 °C, 5% CO2
Procedure: 2. Experimental section for biological experiments
Stock solutions of the test compounds
Stock solution of a concentration of 10 mM in pure DMSO (Sigma-Aldrich, Switzerland) were prepared of the 12 compounds, these stock solutions were used for all in vitro evaluations from activity tests in S. mansoni to the cytotoxic determinations in HUH7 hepatocyte-derived carcinoma cells, and in SH-SY5Y neuroblastoma cells.
The solutions were thoroughly vortexed and sonicated to enable a good dissolution of the compounds and homogenous stock solutions.
2.1 In vitro evaluations in S. mansoni
In vitro evaluation on newly transformed schistosomula (NTS)
To obtain newly transformed schistosomula (NTS) the lifecycle of S. mansoni (strain originates from West Africa, Liberia) is maintained at the Swiss Tropical and Public Health Institute (Swiss TPH). As previously described, cercariae are collected from infected Biomphalaria glabrata snails and then mechanically transformed into NTS. 8 After HBSS (Gibco, Waltham MA, USA) washing to get rid of the detached tails, the NTS were kept overnight (min. 12 h, max. 24 h) in culture medium at 37 °C and 5 % CO2 to complete their transformation process, before the drug sensitivity assay was started. The drug assays were performed in the same culture medium consisting of medium M199 (Gibco, Waltham MA, USA) supplemented with 5 % v/v inactivated fetal calf serum (iFCS; Bioconcept AG, Allschwil, Switzerland), 1% antibiotics mixture developed by Mäser et al., 9 and 1 % penicillin 10,000 U/mL, and streptomycin 10 mg/mL solution (Sigma-Aldrich, Buchs, Switzerland). The assay was performed in a 96-well plate, with 30−40 NTS per well in a final volume of 250 μL. NTS incubated in culture medium containing 0.5 % DMSO but no drug served as negative controls.
Microscopic evaluation was performed after 24, 48 and 72 h of incubation of the parasites at 37 °C and 5 % CO 2. Their overall viability was scored from 0 (death) to 3 (full viability) by a phenotypic screening method based on their motility, morphology, […]
and granularity. […]

SH-SY5Y cells = test: SYTOX cell viability assay, SH-SY5Y; type: cell-based, human; conditions: 20 µM, 24 h, serum-free charcoal-treated medium, vs DMSO control (0.2%), mean
Procedure: The SYTOX cell viability assay was performed in SHSY5Y cells. Cells were treated with either compound (20 µM) or DMSO control (0.2%) for 24 h at 37 °C and 5% CO2 in serum‐free charcoal‐treated medium. Results were normalized to the DMSO control. Mean ± SD was calculated from three independent experiments, each performed in quadruplicate. […]
serum-free media containing either treatment at a concentration of 20 µM or DMSO (ITW Reagents Cat A3672) control (0.2 %).
Following 24 h of incubation, 12.5 μL of an XTT/phenazine methosulfate (PMS) (XTT Sigma Aldrich cat X4626, PMS Serva CAT: 3203) 0.02solution (1 mg/mL XTT and 7.5 μg/mL PMS) was added to each well. Absorbance was measured using a microplate reader (Biotek Synergy HT) at 450 nm (signal) and 650 nm (background), 2 h after the addition of the XTT/PMS solution. Individual backgrounds were subtracted and all results were normalized to DMSO control. Mean ± SD was determined from three independent experiments, each performed in quintuplicate.
SYTOX cell viability assay
The cytotoxic potential was additionally evaluated using the staining-based SYTOX viability assay. […] Data was acquired on the BioTeck Cytation5 microscope and evaluated by the manufacturer’s software (Gen5 Image Prime Version 3.12). […] Mean ± SD was determined from three independent experiments, each performed in quadruplicate. […]

juvenile S. mansoni = test: In vitro drug sensitivity assay on juvenile S. mansoni; type: cell-based, Schistosoma mansoni; conditions: 72 h incubation, 37 °C, 5% CO2
Procedure: Juvenile worms were gained through cultivation of NTS as previously described. 10 In short, NTS were obtained as described above, then directly after the mechanical transformation process the newly transformed schistosomula were placed in a special culturing medium. The culture medium consists of Panserin 401, w: L-Glutamine, serum free all-round medium (Pan Biotech, Aidenbach, Germany) supplemented with 20 % human serum and 500 U/mL penicillin, […] streptomycin (LuBioScience, Switzerland). 96-well transparent polystyrene flat bottom plates were used for the in vitro growth procedure, with 40 to 60 NTS per well in 100 µL culture medium. The bordering wells of the plate were filled solely with medium to counteract evaporation and to keep the humidity as steady as possible. The plates were incubated for 21 days at 5 % CO2 and at 37 °C, with regular medium changes every 3 to 4 days. After the 21 days culturing period, the schistosomulae developed into juveniles. For the drug sensitivity assay, juvenile worms were incubated over 72 h (5 % CO 2 and 37 °C) with the test compound in the same medium, as used for the culturing process. In a 96-well plate, 250 µL medium containing the test compound and six juvenile worms, ideally of both sexes were placed in each well. All compounds were tested twice independently at 50, 10, 5 and 1 µM in duplicates. The viability of the worms was evaluated microscopically after 24, 48 and 72 h of continuous drug exposure using the same phenotypic screening method as described before. […]

[2] = Stability of A2 in DMSO-d6 with D2O (4:1) by 1H NMR; type: physicochemical; conditions: Figure S36; DMSO-d6 with D2O (4:1, v/v)
Procedure: Figure S31 DEPT spectrum of C2
1H NMR spectra for stability
Preparation of the control samples for 1H NMR analysis: Compounds B1, D1, A3 and
C2 were dissolved in DMSO- d6. Compound A2 was dissolved in DMSO- d6 with D2O
(4:1, v/v). NMR spectra were recorded in deuterated solvents on Bruker Avance-400
in the room temperature for 0, 6, 24, 30 and 48 hours or 0, 3, 6 and 24 hours. […]

| SMILES | drug effect at 50 µM on adult S. mansoni (adult S. mansoni) | EC50 (adult S. mansoni) | EC50 [1] | drug effect at 50 µM on S. mansoni NTS ([1]; highest tested concentration 50 µM) | reduction of SH-SY5Y cell viability (SYTOX) (SH-SY5Y cells) | mean drug effect at 10 µM on adult S. mansoni, 24 h (adult S. mansoni; 10 µM, 24 h, in percentage of DMSO control) | mean drug effect at 10 µM on adult S. mansoni, 48 h (adult S. mansoni; 10 µM, 48 h, in percentage of DMSO control) | mean drug effect at 10 µM on adult S. mansoni, 72 h (adult S. mansoni; 10 µM, 72 h, in percentage of DMSO control) | EC50 (juvenile S. mansoni) | stability under warm and moist conditions [2] |
| --- | --- | --- | --- | --- | --- | --- | --- | --- | --- | --- |
| O=C(Nc1ncc([N+](=O)[O-])s1)[c-]1cccc1.[Fe+2].c1cc[cH-]c1 [Compound A1] | No drug effect | > 50 µM | > 50 µM | No drug effect | did not alter SH‐SY5Y cell viability; also recorded: inactive | – | – | – | – | – |
| O=C([c-]1cccc1)N1CCN(c2ncc([N+](=O)[O-])s2)C1=O.[Fe+2].c1cc[cH-]c1 [Compound A2] | more active | 8.2 µM | 2 µM | – | – | 36.97% | 46.61% | 56.40% | 6.35 µM | stable |
